We go through one substance from patent US20040265840A1, “Preservation of RNA quality and content in tissue sections during immunohistochemistry” (priority 2002, published 2004).

This test has as its system RNase activity in a processed tissue. Description: Inhibition of RNase activity in processed tissue during IHC staining. The note with it: compared to other commercially available RNase inhibitors. On the procedure: In one embodiment of the invention, the invention provides methods that preserve or maintain RNA quality and content in an IHC sample, such as for LCM, by use of a ribonucleoside vanadyl complex (RVC) as an RNase inhibitor. […] Use of RVCs is preferred in the practice of the invention over other RNase inhibitors and allows for performance of IHC staining of samples for LCM and downstream gene expression analysis.
The immunostaining was performed on frozen, acetone fixed, sections. RVCs (Ribonucleoside Vanadyl Complexes, Sigma catalog #R3380; Berger et al. Biochemistry 1979, 18:51431; Pukas et al., Biochemistry 1982, 21:46023) at 20 mM were added to all the acts of the staining including primary antibody solution, secondary antibody solution, and rinsing solutions (phosphate buffered saline or PBS). The processing was as follows:
IHC staining was performed on frozen, acetone fixed sections. All reagent solutions were prepared with nuclease free PBS containing a RVC RNase inhibitor and kept at +4° C. The slides were removed from −80° C. storage, 30 seconds are allowed for the condensation to disappear prior to fixing. The staining procedure was done at +4° C. by keeping the slides on a cold block through all parts of the procedure: […]

Consider Ribonucleoside Vanadyl Complexes [RVCs], for which the “inhibition of RNase activity in a processed tissue” value is given as “superior inhibition of RNase activity”.
